Key:
[1] = biological target: T1, porcine ventricular cardiac S1 (Sus scrofa, UniProt P79293); assay: Actin-activated myosin S1 ATPase, cardiac; format: biochemical
T1 construct: tissue Pel-freez; host or cells: frozen porcine ventricular muscle; myosin extracted and digested with alpha-chymotrypsin
Procedure: Smooth muscle chicken gizzard S1 was purchased from Cytoskeleton Inc. Other myosin S1 was prepared via published protocols ([21]). Briefly, fresh rabbit psoas and frozen porcine ventricular muscle (Pel-freez) were extracted in 0.3 M KCl, 0.15 M KH2PO4, 1 mM EGTA, 1 mM ATP, 1 mM DTT, pH 6.5, at 4°C. Full-length myosin was purified from each extract via low-ionic precipitations with final precipitation into PM12 buffer (12 mM PIPES, pH 7.0, 2 mM MgCl2). Purified myosin was resuspended in PIPES/EDTA buffer (20 mM PIPES, pH 6.8, 10 mM EDTA, 1 mM DTT) and reacted with 0.2 mg/mL α-chymotrypsin for 30 minutes at room temperature. Proteolysis was quenched with PMSF (final concentration 100 μM), and the reaction was centrifuged for 45 minutes at 230,000g. S1 fragment in the supernatant was dialyzed into PM12 with 0.02% sodium azide and clarified by centrifugation. Sucrose was added to 10% w/v and flash-frozen in liquid N2 and stored at –80°C. […]
A lactate dehydrogenase/pyruvate kinase enzyme-coupled system ([62]) was used to monitor ATP hydrolysis rates in various muscle preparations. […] A multidrop cassette (Thermo Fisher Scientific) dispensed 10 μL of the coupled enzyme system, calcium, and myofibrils to 10 μL ATP, NADH and PEP to initiate the reaction prior to reading on a plate reader (Envision, Perkin Elmer) for 10 minutes per plate at room temperature. […]

[2] = system: mixed fast/slow mouse soleus muscle; assay: Ex vivo isometric force, mouse soleus; details: 31% type I, 60% type IIa/IIx
Procedure: Isometric force was measured ex vivo in mouse EDL and soleus muscle. EDL muscle eccentric injury was based on published protocols ([30]), with degree of lengthening and stimulation modified to yield a uniform drop in mdx isometric and peak force over 10 contractions. After isolation, muscle was mounted via 5-0 suture to a combination servomotor/force transducer (300C-LR, Aurora) between 2 electrodes connected to a stimulator (701C, Aurora) in Ringers solution at 27°C with continuously infused CO2/O2 gas mixture. Experiments were recorded with custom MATLAB software via a National Instruments PCIe-6321 board and 2090A BNC connector. Muscles were preincubated for 60 minutes with DMSO (final 0.1%)/compound before 10 eccentric contractions, 1 minute apart, with 100 milliseconds of isometric stimulation at 100 Hz and active lengthening of 0.1 L0 at a rate of 2 L0/s. After lengthening, muscles were held at 1.1 L0 with stimulation for 100 milliseconds (Supplemental Figure 2A).

[3] = system: mdx mouse gastrocnemius muscle; assay: RNA-Seq analysis of gastrocnemius muscle; format: in vivo
Procedure: RNA-Seq was performed with isolated single nuclei using the 10X Genomics Chromium Single Cell 3’ Protocol, Accessories, and Kits (CG000183 Rev A). Data were then analyzed by Rosalind (https://rosalind.onramp.bio/), with a HyperScale architecture developed by OnRamp BioInformatics Inc. Data have been submitted to the Gene Expression Omnibus (GEO) database at the NIH (accession GSE227510).

[4] = Muscle concentration in GRMD dogs; format: in vivo, dog; details: end of the dosing period
Procedure: We viewed data in mice as encouraging but were interested in testing EDG-5506 in dystrophic golden retriever (GRMD) dogs; their muscle composition and function more closely resemble that of humans ([40]). Older (7 months of age), disease-stable GRMD were dosed in 2-week periods with vehicle, then EDG-5506, followed by a vehicle washout. As fast fiber atrophy has been documented in DMD dogs ([16]), we confirmed sustained fast myosin from biopsies of age-matched WT/GRMD gastrocnemius muscle (Supplemental Figure 6A). EDG-5506 concentration was measured from a muscle biopsy at the end of the dosing period (4,951 ± 217 ng/g muscle). EDG-5506 administration was associated with a more than 50% decrease in CK, returning to pretreatment levels after compound washout (Figure 6A). Physical activity normally increases CK in GRMD ([41]), raising the question of whether EDG-5506 lowered CK via decreasing physical activity. We sought to test the effect of EDG-5506 on habitual activity in the same dogs using an activity monitor ([42]). EDG-5506 improved average daily activity by more than 30% (Figure 6B and Supplemental Figure 6B) with reversible increases in time active and decreases in time resting (Figure 6C). One GRMD used in the biomarker study was too severely progressed to participate in this study.

[5] = biological target: T2, ABL1-phosphorylated (Homo sapiens, UniProt P00519); assay: KINOMEscan scanEDGE; format: binding; details: 20 uM
T2 construct: purchased Eurofins DiscoverX (KINOMEscan; SAFETYscan E/IC50 ELECT)

[6] = biological target: T3, AURKA (Homo sapiens, UniProt O14965); assay: KINOMEscan scanEDGE; format: binding; details: 20 uM
T3 construct: purchased Eurofins DiscoverX (KINOMEscan; SAFETYscan E/IC50 ELECT)

[7] = biological target: T4, PDPK1 (Homo sapiens, UniProt O15530); assay: KINOMEscan scanEDGE; format: binding; details: 20 uM
T4 construct: purchased Eurofins DiscoverX (KINOMEscan; SAFETYscan E/IC50 ELECT)

[8] = biological target: T5, LCK (Homo sapiens, UniProt P06239); assay: SAFETYscan Binding; design: dose or concentration left out as unconfirmed; details: read-out: Max Response (%) (Antagonist)
T5 construct: purchased Eurofins DiscoverX (KINOMEscan; SAFETYscan E/IC50 ELECT)
Procedure: (§1) The specificity of EDG-5506 for fast skeletal myosin over other, unrelated proteins was confirmed using two off-target binding and activity screens. […] A second off-target panel (SAFETYscan E/IC50 ELECT, Eurofins DiscoverX) tested in vitro enzyme activity against 78 proteins, including GPCR, ion channel, kinases, nuclear hormone receptors, and transporters. In all assays, the IC50 of EDG-5506 was more than 10 μM (Supplemental Data File 1).

[9] = biological target: T6, ROCK1 (Homo sapiens, UniProt Q13464); assay: SAFETYscan Binding; design: dose or concentration left out as unconfirmed; details: read-out: Max Response (%) (Antagonist)
T6 construct: purchased Eurofins DiscoverX (KINOMEscan; SAFETYscan E/IC50 ELECT)
Procedure: as §1

[10] = mdx EDG-5506 3 mg/kg vs mdx Control

T6 sequence (Q13464 whole entry): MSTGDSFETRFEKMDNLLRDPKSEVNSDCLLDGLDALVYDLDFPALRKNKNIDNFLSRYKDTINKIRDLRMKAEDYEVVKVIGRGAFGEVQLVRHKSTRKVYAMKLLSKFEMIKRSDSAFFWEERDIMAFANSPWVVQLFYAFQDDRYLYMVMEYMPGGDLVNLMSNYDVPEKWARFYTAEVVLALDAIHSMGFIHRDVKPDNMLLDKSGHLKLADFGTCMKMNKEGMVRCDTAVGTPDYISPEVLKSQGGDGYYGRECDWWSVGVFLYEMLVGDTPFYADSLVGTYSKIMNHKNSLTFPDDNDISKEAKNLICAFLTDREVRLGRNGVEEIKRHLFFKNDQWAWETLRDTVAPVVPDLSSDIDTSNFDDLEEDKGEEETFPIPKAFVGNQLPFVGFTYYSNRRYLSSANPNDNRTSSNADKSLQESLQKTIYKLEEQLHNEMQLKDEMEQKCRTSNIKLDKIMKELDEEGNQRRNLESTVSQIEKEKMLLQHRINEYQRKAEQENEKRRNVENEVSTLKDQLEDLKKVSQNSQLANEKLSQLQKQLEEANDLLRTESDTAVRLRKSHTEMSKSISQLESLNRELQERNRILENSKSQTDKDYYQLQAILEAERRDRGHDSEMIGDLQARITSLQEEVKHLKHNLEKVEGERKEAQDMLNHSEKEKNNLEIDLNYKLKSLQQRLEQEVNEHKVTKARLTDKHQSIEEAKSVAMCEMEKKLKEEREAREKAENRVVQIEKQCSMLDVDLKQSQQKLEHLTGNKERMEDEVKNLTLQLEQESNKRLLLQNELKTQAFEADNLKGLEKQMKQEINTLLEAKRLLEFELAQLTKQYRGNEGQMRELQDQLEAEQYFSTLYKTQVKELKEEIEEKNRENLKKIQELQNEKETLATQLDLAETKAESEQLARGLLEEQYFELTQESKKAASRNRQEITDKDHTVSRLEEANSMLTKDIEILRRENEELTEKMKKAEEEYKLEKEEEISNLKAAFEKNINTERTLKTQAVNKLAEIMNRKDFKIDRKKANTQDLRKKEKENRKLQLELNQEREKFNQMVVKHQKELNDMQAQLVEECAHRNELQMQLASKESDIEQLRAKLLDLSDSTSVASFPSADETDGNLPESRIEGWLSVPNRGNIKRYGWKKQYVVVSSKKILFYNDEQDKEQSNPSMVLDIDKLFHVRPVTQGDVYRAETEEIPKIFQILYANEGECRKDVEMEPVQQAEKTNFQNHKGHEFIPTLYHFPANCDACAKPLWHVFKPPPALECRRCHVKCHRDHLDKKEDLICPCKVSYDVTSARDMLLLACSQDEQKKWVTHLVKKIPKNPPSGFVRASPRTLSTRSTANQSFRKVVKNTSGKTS
T1 sequence (P79293 1-808 limits assumed): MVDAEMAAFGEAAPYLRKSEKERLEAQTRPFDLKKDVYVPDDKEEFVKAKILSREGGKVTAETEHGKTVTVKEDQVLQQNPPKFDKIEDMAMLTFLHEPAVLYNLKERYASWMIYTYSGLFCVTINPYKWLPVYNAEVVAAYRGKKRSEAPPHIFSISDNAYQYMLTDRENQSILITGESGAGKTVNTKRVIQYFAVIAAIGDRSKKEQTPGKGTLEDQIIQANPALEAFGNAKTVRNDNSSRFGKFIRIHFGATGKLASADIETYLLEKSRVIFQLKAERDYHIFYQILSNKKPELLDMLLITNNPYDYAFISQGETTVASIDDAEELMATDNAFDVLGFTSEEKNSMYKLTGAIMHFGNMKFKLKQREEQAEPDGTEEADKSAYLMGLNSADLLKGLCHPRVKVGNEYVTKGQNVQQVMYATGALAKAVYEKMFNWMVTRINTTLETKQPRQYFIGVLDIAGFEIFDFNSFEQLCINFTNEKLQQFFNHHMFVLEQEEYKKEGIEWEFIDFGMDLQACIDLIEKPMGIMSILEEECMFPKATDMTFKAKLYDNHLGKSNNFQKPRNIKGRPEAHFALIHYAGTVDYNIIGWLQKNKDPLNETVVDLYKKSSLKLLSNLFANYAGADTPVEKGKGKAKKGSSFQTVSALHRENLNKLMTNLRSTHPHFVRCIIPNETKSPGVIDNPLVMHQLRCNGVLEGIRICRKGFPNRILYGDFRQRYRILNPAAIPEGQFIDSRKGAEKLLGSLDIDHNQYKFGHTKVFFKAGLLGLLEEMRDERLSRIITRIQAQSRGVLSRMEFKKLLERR
T2 sequence (P00519 whole entry): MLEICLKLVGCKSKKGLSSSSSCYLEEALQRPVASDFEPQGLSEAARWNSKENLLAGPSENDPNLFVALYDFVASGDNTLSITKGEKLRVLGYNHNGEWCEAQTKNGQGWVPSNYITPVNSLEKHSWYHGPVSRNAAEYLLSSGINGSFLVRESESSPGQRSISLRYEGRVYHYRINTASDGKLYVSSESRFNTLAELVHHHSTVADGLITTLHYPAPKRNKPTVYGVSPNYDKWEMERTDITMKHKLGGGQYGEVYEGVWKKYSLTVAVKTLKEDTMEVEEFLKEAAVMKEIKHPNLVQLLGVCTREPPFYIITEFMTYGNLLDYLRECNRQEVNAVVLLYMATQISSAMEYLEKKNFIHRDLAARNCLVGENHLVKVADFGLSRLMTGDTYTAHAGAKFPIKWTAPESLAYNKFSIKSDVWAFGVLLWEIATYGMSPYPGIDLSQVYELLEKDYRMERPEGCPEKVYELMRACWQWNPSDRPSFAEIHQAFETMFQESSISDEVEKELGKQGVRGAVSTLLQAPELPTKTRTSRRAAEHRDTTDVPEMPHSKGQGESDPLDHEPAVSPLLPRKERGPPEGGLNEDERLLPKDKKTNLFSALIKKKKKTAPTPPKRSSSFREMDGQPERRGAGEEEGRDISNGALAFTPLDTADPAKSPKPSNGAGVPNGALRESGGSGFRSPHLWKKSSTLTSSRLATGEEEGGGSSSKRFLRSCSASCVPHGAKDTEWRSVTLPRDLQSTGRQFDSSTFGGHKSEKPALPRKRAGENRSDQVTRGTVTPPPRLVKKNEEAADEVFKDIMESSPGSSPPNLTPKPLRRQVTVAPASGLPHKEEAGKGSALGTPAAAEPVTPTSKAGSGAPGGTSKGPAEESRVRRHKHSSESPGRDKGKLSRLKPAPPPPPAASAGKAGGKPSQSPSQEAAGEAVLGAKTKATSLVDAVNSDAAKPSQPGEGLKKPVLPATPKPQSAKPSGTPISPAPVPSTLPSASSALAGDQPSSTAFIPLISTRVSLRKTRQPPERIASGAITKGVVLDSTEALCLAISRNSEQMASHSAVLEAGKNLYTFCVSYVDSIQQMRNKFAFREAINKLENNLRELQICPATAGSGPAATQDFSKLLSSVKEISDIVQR
T3 sequence (O14965 whole entry): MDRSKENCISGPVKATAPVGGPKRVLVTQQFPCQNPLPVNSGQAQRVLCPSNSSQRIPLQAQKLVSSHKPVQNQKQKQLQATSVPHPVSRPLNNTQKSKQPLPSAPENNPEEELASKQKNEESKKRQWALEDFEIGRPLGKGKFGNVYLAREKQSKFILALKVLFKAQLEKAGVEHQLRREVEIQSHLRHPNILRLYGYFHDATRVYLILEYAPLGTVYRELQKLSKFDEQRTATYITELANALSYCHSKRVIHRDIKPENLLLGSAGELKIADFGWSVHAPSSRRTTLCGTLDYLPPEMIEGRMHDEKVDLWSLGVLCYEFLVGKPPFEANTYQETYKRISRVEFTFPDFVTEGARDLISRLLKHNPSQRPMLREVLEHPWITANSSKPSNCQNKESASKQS
T4 sequence (O15530 whole entry): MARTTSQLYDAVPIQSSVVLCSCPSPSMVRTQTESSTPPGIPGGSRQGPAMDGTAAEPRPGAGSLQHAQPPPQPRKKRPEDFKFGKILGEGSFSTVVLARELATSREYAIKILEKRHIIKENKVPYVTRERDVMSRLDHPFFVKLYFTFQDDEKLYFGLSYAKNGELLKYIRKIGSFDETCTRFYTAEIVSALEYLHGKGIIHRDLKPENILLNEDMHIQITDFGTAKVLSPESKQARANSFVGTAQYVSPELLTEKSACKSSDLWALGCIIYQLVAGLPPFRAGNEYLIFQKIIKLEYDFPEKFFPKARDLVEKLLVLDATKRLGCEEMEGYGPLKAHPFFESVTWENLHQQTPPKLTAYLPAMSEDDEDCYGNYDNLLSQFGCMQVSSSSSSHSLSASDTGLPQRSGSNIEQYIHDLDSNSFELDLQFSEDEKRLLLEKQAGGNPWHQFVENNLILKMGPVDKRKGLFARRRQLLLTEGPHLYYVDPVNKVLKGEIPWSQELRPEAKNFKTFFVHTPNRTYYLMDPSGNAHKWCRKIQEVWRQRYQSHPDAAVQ
T5 sequence (P06239 whole entry): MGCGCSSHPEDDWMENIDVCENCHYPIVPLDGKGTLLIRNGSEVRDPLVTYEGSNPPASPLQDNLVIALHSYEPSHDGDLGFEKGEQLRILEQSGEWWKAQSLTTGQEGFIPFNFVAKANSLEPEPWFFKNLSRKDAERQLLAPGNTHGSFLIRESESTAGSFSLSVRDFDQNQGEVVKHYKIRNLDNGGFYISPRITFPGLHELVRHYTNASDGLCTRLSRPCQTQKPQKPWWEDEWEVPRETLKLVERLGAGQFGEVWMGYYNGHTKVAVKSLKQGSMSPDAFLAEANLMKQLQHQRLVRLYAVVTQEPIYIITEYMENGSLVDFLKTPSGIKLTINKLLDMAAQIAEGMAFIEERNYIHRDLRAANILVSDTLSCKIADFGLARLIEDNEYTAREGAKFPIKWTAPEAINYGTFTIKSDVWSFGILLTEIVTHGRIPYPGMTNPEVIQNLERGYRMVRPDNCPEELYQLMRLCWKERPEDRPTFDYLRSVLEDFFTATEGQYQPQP

For `O=c1ccc(-c2cnc(OCC(F)(F)F)nc2)nn1Cc1cncc(F)c1` [EDG-5506], the IC50 [1] was over 100 µM, the “ex vivo force inhibition” value [2] was “partial force inhibition” and the “log2FoldChange Chrng” value ([3]; mdx EDG-5506 3 mg/kg vs WT) was 0.42. The “log2FoldChange Igfn1” value ([3]; mdx EDG-5506 3 mg/kg vs WT) was 2.931, the “log2FoldChange Katnal2” value ([3]; mdx EDG-5506 3 mg/kg vs WT) was 1.899 and the “log2FoldChange Myh8” value ([3]; mdx EDG-5506 3 mg/kg vs WT) was 0.5674. The “log2FoldChange Myl4” value ([3]; mdx EDG-5506 3 mg/kg vs WT) was 1.684, the “log2FoldChange Chrng” value [3, 10] was -0.2866 and the “log2FoldChange Igfn1” value [3, 10] was -0.9018. For the same compound, the “log2FoldChange Katnal2” value [3, 10] was -0.9377, the “log2FoldChange Myh8” value [3, 10] was -0.538 and the “log2FoldChange Myl4” value [3, 10] was -1.31. The “skeletal muscle transcription profile” value ([3]; mdx mice, 8 weeks) was “returned the skeletal muscle transcription profile closer to that of WT mice”, the “EDG-5506 concentration in muscle biopsy” value [4] was 4,951 ± 217 ng/g muscle and the “binding, % of control” value [5] was 72 % of control. The “binding, % of control” value [6] was 99 % of control, the “binding, % of control” value [7] was 95 % of control and the Emax [8] was 0%. The Emax [9] was 24.6%.

From paper PMC10178848, “Modulating fast skeletal muscle contraction protects skeletal muscle in animal models of Duchenne muscular dystrophy” (The Journal of Clinical Investigation, 2023)
